Results from ChEMBL document CHEMBL1149379, “Pyrrolo(iso)quinoline derivatives as 5-HT(2C) receptor agonists” (Bioorg Med Chem Lett, 2006).
Calls of active or inactive are those of the source. The calls are words filed in the database; no cut-off is given here.

Columns and labels:
Rattus norvegicus [1] = assay: Reduction in food intake in food-deprived rats after 4 hrs of administration of 3 mg/kg; type: functional, organism-based; parameters: dose 3 mg/kg
[2] = biological target: T1, 5-hydroxytryptamine receptor 2A (Homo sapiens, UniProt P28223); assay: Binding to human 5HT2A receptor expressed in CHO cells relative to 5HT; type: cell-based
[3] = biological target: T2, 5-hydroxytryptamine receptor 2B (Homo sapiens, UniProt P41595); assay: Binding to human 5HT2B receptor expressed in CHO cells relative to 5HT; type: cell-based
[4] = biological target: T3, 5-hydroxytryptamine receptor 2C (Homo sapiens) (UniProt P28335); assay: Binding to human 5HT2C receptor expressed in CHO cells relative to 5HT; type: cell-based
T3 sequence (whole entry): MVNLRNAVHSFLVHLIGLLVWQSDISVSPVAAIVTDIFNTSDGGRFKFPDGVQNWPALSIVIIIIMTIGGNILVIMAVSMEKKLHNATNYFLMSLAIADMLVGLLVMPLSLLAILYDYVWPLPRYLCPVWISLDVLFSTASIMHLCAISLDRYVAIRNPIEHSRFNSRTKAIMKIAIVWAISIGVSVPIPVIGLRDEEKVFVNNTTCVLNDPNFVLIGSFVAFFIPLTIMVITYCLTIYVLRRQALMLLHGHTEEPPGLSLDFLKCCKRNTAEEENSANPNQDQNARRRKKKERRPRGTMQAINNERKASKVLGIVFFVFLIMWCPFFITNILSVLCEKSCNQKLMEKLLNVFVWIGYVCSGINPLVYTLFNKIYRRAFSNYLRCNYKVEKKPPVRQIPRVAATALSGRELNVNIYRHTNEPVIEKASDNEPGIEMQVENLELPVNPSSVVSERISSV

[5] = biological target: T1, 5-hydroxytryptamine receptor 2A; assay: Binding to human 5HT2A receptor expressed in CHO cells; type: cell-based
[6] = biological target: T2, 5-hydroxytryptamine receptor 2B; assay: Binding to human 5HT2B receptor expressed in CHO cells; type: cell-based
[7] = biological target: T4, 5-hydroxytryptamine receptor 2C (Homo sapiens, UniProt P28335); assay: Binding to human 5HT2C receptor expressed in CHO cells; type: cell-based
T4 sequence (P28335 whole entry): T3 sequence (whole entry)

[8] = biological target: T1, 5-hydroxytryptamine receptor 2A; assay: Displacement of [125I]DOI from human 5HT2A
[9] = biological target: T2, 5-hydroxytryptamine receptor 2B; assay: Displacement of [3H]5-HT from human 5HT2B
[10] = biological target: T4, 5-hydroxytryptamine receptor 2C; assay: Displacement of [3H]5-HT from human 5HT2C
Rattus norvegicus [11] = species on record: Rattus norvegicus; assay: Blocking of anorectic effect in rats pre-treated with SB-242084; type: functional, organism-based

T1 sequence (P28223 whole entry): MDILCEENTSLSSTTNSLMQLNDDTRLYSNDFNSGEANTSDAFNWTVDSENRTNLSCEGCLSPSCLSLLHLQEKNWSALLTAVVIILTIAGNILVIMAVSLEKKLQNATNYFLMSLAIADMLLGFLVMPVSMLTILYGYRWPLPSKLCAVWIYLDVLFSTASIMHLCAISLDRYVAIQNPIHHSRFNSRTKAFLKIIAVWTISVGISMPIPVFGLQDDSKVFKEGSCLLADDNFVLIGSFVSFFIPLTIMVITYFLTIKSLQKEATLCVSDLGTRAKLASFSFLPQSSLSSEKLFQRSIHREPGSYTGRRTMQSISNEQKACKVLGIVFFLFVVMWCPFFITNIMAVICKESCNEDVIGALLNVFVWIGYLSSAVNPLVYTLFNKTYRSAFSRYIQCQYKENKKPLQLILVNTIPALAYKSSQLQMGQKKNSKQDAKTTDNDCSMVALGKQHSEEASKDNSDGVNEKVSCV
T2 sequence (P41595 whole entry): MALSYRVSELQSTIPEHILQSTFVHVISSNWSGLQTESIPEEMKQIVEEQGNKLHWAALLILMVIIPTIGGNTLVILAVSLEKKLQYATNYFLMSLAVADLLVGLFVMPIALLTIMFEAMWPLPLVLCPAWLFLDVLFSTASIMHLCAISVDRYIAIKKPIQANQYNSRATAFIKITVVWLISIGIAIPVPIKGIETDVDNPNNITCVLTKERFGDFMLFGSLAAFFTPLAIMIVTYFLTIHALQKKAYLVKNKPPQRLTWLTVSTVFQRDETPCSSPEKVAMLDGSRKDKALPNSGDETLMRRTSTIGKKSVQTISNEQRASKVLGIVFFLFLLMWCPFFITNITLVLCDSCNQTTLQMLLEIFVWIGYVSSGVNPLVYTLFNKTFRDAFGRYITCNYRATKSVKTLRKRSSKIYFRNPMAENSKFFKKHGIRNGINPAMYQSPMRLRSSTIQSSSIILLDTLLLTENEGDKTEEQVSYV

`CCN[C@@H](C)Cc1cccc(C(F)(F)F)c1` was tested, and the Activity (Rattus norvegicus [1]) was “Active”.
Work on `C[C@H](N)Cn1ccc2ccc3cnccc3c21` yielded an Efficacy [2] of 63%, an Efficacy [3] of 70% and an Efficacy [4] of 93%. The EC50 [5] was > 1000 nM, the EC50 [6] was 152 nM and the EC50 [7] was 297 nM. It also gave a Ki [8] of 1040 nM, a Ki [9] of 778 nM and a Ki [10] of 72 nM.
For `C[C@H](N)Cn1ccc2ccc3cccnc3c21`, the Efficacy [2] was 41%, the Efficacy [3] was 60% and the Efficacy [4] was 39%. It also gave an EC50 [5] of 446 nM, an EC50 [6] of 45 nM and an EC50 [7] of 97 nM. For the same compound, the Ki [8] was 229 nM, the Ki [9] was 115 nM and the Ki [10] was 27 nM.
Work on `C=CCN[C@@H](C)Cn1ccc2ccc3ncccc3c21` yielded an Efficacy [2] of 54%, an Efficacy [3] of 70% and an Efficacy [4] of 92%. The EC50 [5] was 777 nM, the EC50 [6] was 91 nM and the EC50 [7] was 257 nM. The Ki [8] was 1160 nM, the Ki [9] was 455 nM and the Ki [10] was 86 nM.
Compound `Clc1cccc(N2CCNCC2)c1` has an Efficacy [2] of 41%, an Efficacy [3] of 33% and an Efficacy [4] of 83%.
`C[C@H](N)Cn1ccc2ccc3ccncc3c21` was tested, and the Efficacy [2] was 67%, the Efficacy [3] was 67% and the Efficacy [4] was 98%. It also gave an EC50 [5] of 473 nM, an EC50 [6] of 62 nM and an EC50 [7] of 73 nM. For the same compound, the Ki [8] was 230 nM, the Ki [9] was 210 nM and the Ki [10] was 37 nM.
For `C[C@@H](Cn1ccc2ccc3ncccc3c21)NCc1ccccc1`, the Efficacy [2] was 39%, the Efficacy [3] was 70% and the Efficacy [4] was 86%. For the same compound, the EC50 [5] was > 1000 nM, the EC50 [6] was 97 nM and the EC50 [7] was 200 nM. It also gave a Ki [8] of 842 nM, a Ki [9] of 515 nM and a Ki [10] of 77 nM.
In the case of `C[C@@H](Cn1ccc2ccc3ncccc3c21)NCc1ccccc1Cl`, the Efficacy [2] is reported as 58%, the Efficacy [3] is reported as 72% and the Efficacy [4] is reported as 95%. The EC50 [5] was 638 nM, the EC50 [6] was 44 nM and the EC50 [7] was 74 nM. For the same compound, the Ki [8] was 674 nM, the Ki [9] was 380 nM and the Ki [10] was 39 nM.
`C[C@H](N)Cn1ccc2cc(F)c(Cl)cc21` gave an Efficacy [2] of 72%, an Efficacy [3] of 71% and an Efficacy [4] of 93%.
For `COc1ccccc1CN[C@@H](C)Cn1ccc2ccc3ncccc3c21`, the Efficacy [2] was 24%, the Efficacy [3] was 41% and the Efficacy [4] was 77%. The EC50 [5] was > 1000 nM, the EC50 [6] was 462 nM and the EC50 [7] was 551 nM. It also gave a Ki [8] of 1570 nM, a Ki [9] of 883 nM and a Ki [10] of 168 nM.
For `C[C@@H](Cn1ccc2ccc3ncccc3c21)NCc1ccc2ccccc2c1`, the Efficacy [2] was 56%, the Efficacy [3] was 76% and the Efficacy [4] was 99%. The EC50 [5] was 222 nM, the EC50 [6] was 27 nM and the EC50 [7] was 52 nM. For the same compound, the Ki [8] was 181 nM, the Ki [9] was 136 nM and the Ki [10] was 16 nM.
`C[C@@H](Cn1ccc2ccc3ncccc3c21)NCc1ccc2c(c1)OCO2` gave an Efficacy [2] of 69%, an Efficacy [3] of 71% and an Efficacy [4] of 98%. The EC50 [5] was 359 nM, the EC50 [6] was 20 nM and the EC50 [7] was 42 nM. The Ki [8] was 398 nM, the Ki [9] was 138 nM and the Ki [10] was 16 nM.
For `C[C@@H](Cn1ccc2ccc3ncccc3c21)NCC1CCCCC1`, the Efficacy [2] was 32%, the Efficacy [3] was 67% and the Efficacy [4] was 88%. The EC50 [5] was > 1000 nM, the EC50 [6] was 128 nM and the EC50 [7] was 348 nM. It also gave a Ki [8] of 927 nM, a Ki [9] of 624 nM and a Ki [10] of 78 nM.
`Cc1ccccc1CN[C@@H](C)Cn1ccc2ccc3ncccc3c21` showed an Efficacy [2] of 49%, an Efficacy [3] of 64% and an Efficacy [4] of 87%. For the same compound, the EC50 [5] was > 1000 nM, the EC50 [6] was 128 nM and the EC50 [7] was 219 nM. The Ki [8] was 1680 nM, the Ki [9] was 739 nM and the Ki [10] was 171 nM.
Work on `C[C@H](N)Cn1ccc2cc(Cl)c3ncccc3c21` yielded an Efficacy [2] of 85%, an Efficacy [3] of 61% and an Efficacy [4] of 101%. For the same compound, the EC50 [5] was 36 nM, the EC50 [6] was 2.1 nM and the EC50 [7] was 6.9 nM. The Ki [8] was 29 nM, the Ki [9] was 18 nM and the Ki [10] was 2.4 nM.
Compound `NCCc1c[nH]c2ccc(O)cc12` has an Efficacy [2] of 98%.
In the case of `C[C@H](N)Cn1ccc2ccc3ncccc3c21`, the Activity (Rattus norvegicus [1]) is reported as “Active”, the Activity (Rattus norvegicus [11]) is reported as “Dose-dependent effect” and the Efficacy [2] is reported as 88%. The Efficacy [3] was 65%, the Efficacy [4] was 99% and the EC50 [5] was 32 nM. The EC50 [6] was 1.1 nM, the EC50 [7] was 2.9 nM and the Ki [8] was 31 nM. The Ki [10] was 1.6 nM.
